How the values were obtained:
Format in all cases: cell-based
[1] = system: c-kit positive marrow progenitor cells; assay: bone marrow c-kit-positive progenitor cells: cell cycle and colony forming assay
Method: FIG. 16. (a) Effect of stilbenes in normal bone marrow progenitor cells. c-kit-positive bone marrow mononuclear cells were isolated for incubation with stilbenes 4a or 4c at 0.1 or 0.5 […] for 16 hours. Cells were harvested for fixation and PI staining. Cell cycle analysis and quantification of the subG0/1 population were analyzed by FACScan flow cytometry. The percentages of the apoptotic population were indicated. Shown are the representatives of two independent experiments. (b) Effect of stilbenes in HL60 cells as positive control. HL60 cells were treated with stilbenes 4a or 4c in the same medium as the positive control. (c) Colony forming assay of the stilbene-treated c-kit-positive cells. A fraction of the cells in (a) were diluted and plated on methylcellulose medium at various densities. Cells were incubated for 14 days and the grossly visible colonies were counted. […] Isolated bone marrow c-kit-positive progenitor cells were incubated with DMSO or stilbenes 4a or 4c at 0.1 or 0.5 μM for 16 hours and injected into tail veins of CD45 congenic mice lethally irradiated with 1200 cGy. Mice were monitored for survival and lineage-specific donor engraftment by flow cytometry analysis of peripheral blood. The percentage of donor cells in T, B, and granulocytic series of the recipients were studied at 7 and 14 weeks after transplantation. Stilbene treated c-Kit progenitor cells had the same percentage as the DMSO treated control in all series.
Mouse bone marrow was harvested from femur and tibia of […], subjected to red blood cell lysis, and labeled with anti-c-kit (3C11; CALTAG Laboratories, Burlingame, Calif.) and streptavidin-conjugated microbeads for MACS separation (Miltenyi Biotech, Auburn, Calif.). The c-kit positive marrow progenitor cells were incubated in Iscove's Modified Eagle's Media supplemented with 30% fetal bovine serum, erythropoietin, stem cell factor and interleukin-3 with or without stilbenes 4a or 4c. The ability of long-term proliferation of the c-kit-positive cells was evaluated with colony forming assay. Cells were first treated with DMSO, stilbenes 4a or 4c for 5 h and a fraction of the cells (4000 cells) were plated in the same enriched culture media with methylcellulose for colony forming assays. The grossly visible colonies were counted after 14 days of incubation.

[2] = system: Chk1−/− cells; assay: cell cycle analysis, Chk1-/- MDA-MB231 derivative
Method: (§1) Due to the structural similarity between stilbene 4a and CA4, we investigated the difference in the biological activity of these two compounds in MDA-MB231 breast cancer cells and their Chk2−/− derivatives. […] MDA-MB231 cells were treated with 10 nM stilbene 4a or 1 nM CA4. […] However, a difference in cell cycle change was observed following treatment with 30 nM of stilbene 4a versus 3 nM of CA4. […] This was also the case for cells treated with 100 nM stilbene 4a. A significant subG1/0 population was also noted. […] One possible effect could be a DNA damage response, which is a common mechanism of multiple chemotherapeutic agents but not one of pure microtubule-interfering agents such a paclitaxel or vincristine. […] We then obtained conditional Chk1−/− and Chk2−/− cells, which were derived from the same MDA-MB231 cells for the same flow cytometry analysis. […] In contrast, Chk2−/− cells were more sensitive to stilbene 4a. […] This mechanism is not obvious in higher drug concentrations at which the G2 arrest from microtubule interference is dominant. Therefore, in addition to their microtubule interfering effect, stilbenes have another mechanism to induce cell death. Thus, the use of a Chk2 inhibitor in combination with stilbenes may be a viable approach to enhancing the beneficial therapeutic effects of stilbenes.

[3] = system: MDA-MB231 breast cancer cells; assay: cell cycle analysis, MDA-MB231; conditions: 16 hours
Method: Cells were treated with various concentrations of stilbene 4a or CA4 for 16 hours followed by PI staining and FACscan analysis. […] A unique feature of stilbene 4a was noted when cells were treated with 30 nM.
as §1

[4] = system: UCI101 ovarian cancer cells; assay: Alamar Blue cell growth inhibition, UCI101; conditions: UCI101, 48 hours
Method in brief: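 UCI101 cells at 50% confluence treated 48 h in triplicate with compound (0–10 μM series) or 0.1% DMSO vehicle as 100% control. Alamar Blue added at 1/10 volume for 2 h; absorbance read at 570 and 600 nm, percent growth inhibition from the manufacturer's formula.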

[5] = system: MDA-MB231 breast cancer cells; assay: Alamar Blue cell growth inhibition, MDA-MB231; conditions: based on previous IC50 data
Method in brief: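 Cells at 50% confluence treated in triplicate for 48 hours with 0, 0.01, 0.03, 0.1, 0.3, 1.0, 3.0, 10 μM compound or 0.1% DMSO vehicle. Alamar Blue added at 1/10 volume for 2 hours, absorbance at 570 and 600 nm; percentage growth calculated against untreated cells using the extinction-coefficient formula.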

COc1cc(/C=C\c2ccc(OC)c(N)c2)cc(OC)c1 [4a, (Z)-5-[2-(3,5-Dimethoxy-phenyl)-vinyl]-2-methoxy-phenylamine]
toxicity to normal bone marrow progenitor cells versus leukemia cells [1]: much less toxic to normal bone marrow progenitor cells
cell cycle of marrow progenitor cells at 0.1 μM ([1]; 0.1 μM, 16 hours): increased the subG0/1 and G2 population slightly
cell cycle of marrow progenitor cells at 0.5 μM ([1]; 0.5 μM, 16 hours): increased the subG0/1 and G2 population slightly
sensitivity versus MDA-MB231 [2]: more resistant
cell cycle change at 30 nM ([3]; 30 nM): induced some degree of G2 arrest, but the ratio of G1/G2 did not reverse
cell cycle change at 10 nM stilbene 4a or 1 nM CA4 [3]: No change was observed
relative potency / activity [4]: about equal in their potency
times less potent than CA4 [5]: 10
